Reference: patent publication US12685735B2 (Foghorn Therapeutics Inc., priority 2020, dated 2026)

Legend:
[1] = system: Uveal melanoma cell lines, 92-1 or MP41; experiment: Comparison of BRG1/BRM inhibitor to clinical PKC and MEK inhibitors, cell growth (Cell-titer glo, 3 days); type: cell-based; details: 92-1 or MP41 cells, versus LXS196 and Selumetinib
Experimental: Procedure: Uveal melanoma cell lines, 92-1 or MP41, were plated in 96 well plates in the presence of growth media (See Table 6). […] Cells were incubated at 37 degrees Celsius for 3 days. After three days of treatment, cell growth was measured with Cell-titer glow (Promega), and luminescence was read on an Envision plate reader (Perkin Elmer).

BRG-1 = BRG-1 (Homo sapiens, UniProt P51532); experiment: ATPase catalytic activity assay of BRG-1 (ADP-Glo); type: biochemical; details: ATPase catalytic activity, ADP-Glo; for IC50: read-out: BRG1 IC50 (μM)*; for Emax: read-out: BRG1 Max % Inhibition
Procedure, shortened: (§1)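 Luminescent ADP-Glo readout of ADP generated by ATP hydrolysis. Post-reaction: ATP depletion reagent, RT 40 min; detection reagent converting ADP→ATP, RT 60 min; luminescence read.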

BRM = BRM (Homo sapiens, UniProt P51531); experiment: ATPase catalytic activity assay of BRM (ADP-Glo); type: biochemical; details: for IC50: read-out: BRM IC50 (μM)*
Procedure, shortened: as §1

Sequence of BRG-1 (P51532 whole entry): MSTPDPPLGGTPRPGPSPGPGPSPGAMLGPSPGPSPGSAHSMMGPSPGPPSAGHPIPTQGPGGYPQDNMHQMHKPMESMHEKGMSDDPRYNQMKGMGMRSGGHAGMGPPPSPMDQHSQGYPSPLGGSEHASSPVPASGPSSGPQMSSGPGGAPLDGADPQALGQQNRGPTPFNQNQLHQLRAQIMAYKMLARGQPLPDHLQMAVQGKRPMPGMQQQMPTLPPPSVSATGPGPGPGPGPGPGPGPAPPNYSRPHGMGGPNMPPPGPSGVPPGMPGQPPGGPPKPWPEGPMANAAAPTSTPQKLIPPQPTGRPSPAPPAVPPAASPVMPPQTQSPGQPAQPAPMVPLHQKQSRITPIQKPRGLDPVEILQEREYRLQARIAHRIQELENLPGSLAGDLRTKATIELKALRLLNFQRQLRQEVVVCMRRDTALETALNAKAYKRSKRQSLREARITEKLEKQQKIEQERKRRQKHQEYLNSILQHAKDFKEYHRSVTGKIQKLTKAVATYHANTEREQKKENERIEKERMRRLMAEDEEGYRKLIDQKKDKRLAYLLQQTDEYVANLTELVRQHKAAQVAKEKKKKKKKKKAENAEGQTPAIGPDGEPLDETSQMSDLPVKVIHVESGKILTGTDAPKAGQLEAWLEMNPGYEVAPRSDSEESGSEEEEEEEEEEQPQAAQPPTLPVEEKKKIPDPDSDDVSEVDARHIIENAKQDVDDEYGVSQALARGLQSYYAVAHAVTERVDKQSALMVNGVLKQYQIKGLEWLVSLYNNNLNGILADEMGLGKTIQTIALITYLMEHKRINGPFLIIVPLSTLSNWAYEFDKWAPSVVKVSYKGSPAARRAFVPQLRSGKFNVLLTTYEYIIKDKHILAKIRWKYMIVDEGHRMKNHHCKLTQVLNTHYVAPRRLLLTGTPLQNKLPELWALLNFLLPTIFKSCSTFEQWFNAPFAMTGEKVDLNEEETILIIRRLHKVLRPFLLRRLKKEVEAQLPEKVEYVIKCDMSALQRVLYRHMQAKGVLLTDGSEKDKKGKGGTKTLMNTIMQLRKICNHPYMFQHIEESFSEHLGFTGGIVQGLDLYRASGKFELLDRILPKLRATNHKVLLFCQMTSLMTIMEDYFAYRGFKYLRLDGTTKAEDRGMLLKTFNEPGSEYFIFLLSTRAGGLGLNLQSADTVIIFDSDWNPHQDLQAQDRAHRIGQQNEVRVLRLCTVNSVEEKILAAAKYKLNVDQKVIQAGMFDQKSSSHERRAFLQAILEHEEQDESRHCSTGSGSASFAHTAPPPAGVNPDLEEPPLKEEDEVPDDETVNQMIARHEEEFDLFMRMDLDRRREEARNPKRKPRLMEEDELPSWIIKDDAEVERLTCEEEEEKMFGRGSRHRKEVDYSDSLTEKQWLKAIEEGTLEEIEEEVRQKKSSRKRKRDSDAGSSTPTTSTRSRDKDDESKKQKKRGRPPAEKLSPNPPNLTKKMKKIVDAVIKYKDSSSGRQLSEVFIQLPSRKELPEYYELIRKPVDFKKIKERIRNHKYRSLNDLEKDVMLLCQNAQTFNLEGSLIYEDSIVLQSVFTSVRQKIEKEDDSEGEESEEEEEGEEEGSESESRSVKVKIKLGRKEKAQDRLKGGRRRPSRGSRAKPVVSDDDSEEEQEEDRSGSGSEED
Sequence of BRM (P51531 whole entry): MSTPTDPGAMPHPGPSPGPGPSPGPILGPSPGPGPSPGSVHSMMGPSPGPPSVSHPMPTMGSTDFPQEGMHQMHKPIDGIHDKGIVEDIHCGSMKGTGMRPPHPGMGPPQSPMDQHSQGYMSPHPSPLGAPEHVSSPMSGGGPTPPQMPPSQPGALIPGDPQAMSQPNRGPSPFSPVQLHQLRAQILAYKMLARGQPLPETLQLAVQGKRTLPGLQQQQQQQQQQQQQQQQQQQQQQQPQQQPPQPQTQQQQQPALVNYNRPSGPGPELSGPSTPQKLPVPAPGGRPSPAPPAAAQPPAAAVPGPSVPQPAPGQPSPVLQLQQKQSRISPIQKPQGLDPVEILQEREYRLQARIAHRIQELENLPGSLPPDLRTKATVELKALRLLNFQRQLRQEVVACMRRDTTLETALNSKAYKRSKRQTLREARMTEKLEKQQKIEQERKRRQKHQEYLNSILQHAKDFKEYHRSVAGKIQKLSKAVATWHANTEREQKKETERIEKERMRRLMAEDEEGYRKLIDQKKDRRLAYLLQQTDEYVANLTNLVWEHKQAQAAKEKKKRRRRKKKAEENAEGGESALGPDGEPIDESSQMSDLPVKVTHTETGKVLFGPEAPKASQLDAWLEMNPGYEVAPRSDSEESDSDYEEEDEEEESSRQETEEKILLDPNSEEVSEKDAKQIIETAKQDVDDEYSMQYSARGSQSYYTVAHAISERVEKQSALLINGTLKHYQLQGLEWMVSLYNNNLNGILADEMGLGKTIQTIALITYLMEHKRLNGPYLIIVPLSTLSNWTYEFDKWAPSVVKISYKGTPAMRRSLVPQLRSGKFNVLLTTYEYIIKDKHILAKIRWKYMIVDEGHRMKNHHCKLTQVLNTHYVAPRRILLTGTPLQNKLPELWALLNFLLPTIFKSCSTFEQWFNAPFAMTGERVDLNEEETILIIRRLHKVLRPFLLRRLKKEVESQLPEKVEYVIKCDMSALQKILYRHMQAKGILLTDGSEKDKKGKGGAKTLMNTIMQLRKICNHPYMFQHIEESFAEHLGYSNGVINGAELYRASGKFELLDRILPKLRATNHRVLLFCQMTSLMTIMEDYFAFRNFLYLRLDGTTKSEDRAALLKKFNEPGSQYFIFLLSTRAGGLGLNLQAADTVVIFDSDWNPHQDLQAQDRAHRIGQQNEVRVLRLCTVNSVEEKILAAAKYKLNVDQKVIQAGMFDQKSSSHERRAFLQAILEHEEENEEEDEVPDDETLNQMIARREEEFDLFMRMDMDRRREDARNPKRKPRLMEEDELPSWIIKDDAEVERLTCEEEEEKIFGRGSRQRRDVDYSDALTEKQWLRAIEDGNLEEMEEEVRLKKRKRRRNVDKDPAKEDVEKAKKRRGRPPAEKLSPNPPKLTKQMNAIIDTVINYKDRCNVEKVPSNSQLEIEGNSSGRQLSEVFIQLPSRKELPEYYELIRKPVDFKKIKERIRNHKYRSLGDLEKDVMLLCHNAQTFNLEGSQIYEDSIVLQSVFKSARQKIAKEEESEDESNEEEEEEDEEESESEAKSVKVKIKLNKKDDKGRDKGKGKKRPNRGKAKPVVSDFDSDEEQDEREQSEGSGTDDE

## CSCC[C@H](NC(=O)c1ccc(N)cc1)C(=O)Nc1nc(-c2cccc(-c3ccncc3)c2)cs1 [Compound A]
[1]; 0 to 10 micromolar, 3 days, FIGS. 2A and 2B
  growth inhibition of uveal melanoma cells compared with the clinical PKC and MEK inhibitors: comparable growth inhibition
[1]
  onset of inhibition compared with the clinical PKC and MEK inhibitors: faster onset of inhibition

## C[C@@H]1CN(c2cccc(-c3csc(NC(=O)CNC(=O)c4ccc5c(c4)S(=O)(=O)CCCC5)n3)c2)C[C@H](C)O1 [Compound 128, N-(2-((4-(3-((cis)-2,6-dimethylmorpholino)phenyl)thiazol-2-yl)amino)-2-oxoethyl)-2,3,4,5-tetrahydrobenzo[b]thiepine-8-carboxamide 1,1-dioxide]
BRG-1
  IC50: < 0.1 µM
  Emax: > 95%
BRM
  BRM Max % Inhibition: >95%
  IC50: < 0.1 µM

## CC(=O)N(C)c1cc(-c2cccc(-c3csc(NC(=O)CNC(=O)c4cccc(S(=O)(=O)C(C)C)c4)n3)c2)ccn1 [Compound 25, 3-(isopropylsulfonyl)-N-(2-((4-(3-(2-(N-methylacetamido)pyridin-4-yl)phenyl)thiazol-2-yl)amino)-2-oxoethyl)benzamide]
BRG-1
  IC50: 0.1 to 1 µM
  Emax: > 80%
BRM
  BRM Max % Inhibition: >90%
  IC50: < 0.1 µM

## CC1(CO)CCc2ccc(C(=O)NCC(=O)Nc3nc(-c4cccc(-c5ccncc5)c4)cs3)cc21 (single isomer, unassigned) [Compound 107]
BRG-1
  BRG1 Max % Inhibition: >70%
  IC50: 0.1 to 1 µM
BRM
  BRM Max % Inhibition: >90%
  IC50: 0.1 to 1 µM

## C[C@@]1(C#N)COCc2ccc(C(=O)NCC(=O)Nc3nc(-c4cccc(N5CCC56COC6)c4)cs3)cc21 [Compound 328, (R)-N-(2-((4-(3-(6-oxa-1-azaspiro[3.3]heptan-1-yl)phenyl)thiazol-2-yl)amino)-2-oxoethyl)-4-cyano-4-methylisochromane-6-carboxamide]
BRG-1
  IC50: 0.1 to 1 µM
  Emax: > 95%
BRM
  BRM Max % Inhibition: >95%
  IC50: < 0.1 µM

## C[C@@H]1CN(c2cccc(-c3csc(NC(=O)CNC(=O)c4cnc5c(c4)[C@](C)(CO)CC5)n3)c2)C[C@H](C)O1 [Compound 143, (R)-N-(2-((4-(3-((cis)-2,6-dimethylmorpholino)phenyl)thiazol-2-yl)amino)-2-oxoethyl)-5-(hydroxymethyl)-5-methyl-6,7-dihydro-5H-cyclopenta[b]pyridine-3-carboxamide]
BRG-1
  IC50: > 5 µM
  Emax: > 60%
BRM
  BRM Max % Inhibition: >80%
  IC50: 0.1 to 1 µM

## CC(NC(=O)c1ccc2c(c1)[C@](C)(F)COC2)C(=O)Nc1nc(-c2cccc(N3CCC3)c2)cs1 (stereo in doubt) [Compound 319, (S)-N-((R)-1-((4-(3-(azetidin-1-yl)phenyl)thiazol-2-yl)amino)-1-oxopropan-2-yl)-4-fluoro-4-methylisochromane-6-carboxamide]
BRG-1
  IC50: 0.1 to 1 µM
  Emax: > 95%
BRM
  BRM Max % Inhibition: >95%
  IC50: < 0.1 µM

## C[C@@H]1CN(c2cccc(-c3csc(NC(=O)CNC(=O)c4ccc5c(c4)[C@H](C#N)CCO5)n3)n2)C[C@H](C)O1 (racemic) [Compound 405, rac-4-cyano-N-(2-((4-(6-((cis)-2,6-dimethylmorpholino)pyridin-2-yl)thiazol-2-yl)amino)-2-oxoethyl)chromane-6-carboxamide]
BRG-1
  IC50: 1 to 5 µM
  Emax: > 90%
BRM
  BRM Max % Inhibition: >90%
  IC50: 0.1 to 1 µM

## CC(C)S(=O)(=O)c1cccc(C(=O)NCC(=O)Nc2nc(-c3cccc(-c4ccnc(CN)c4)c3)cs2)c1 [Compound 124, N-[2-[[4-[3-[2-(aminomethyl)-4-pyridyl]phenyl]thiazol-2-yl]amino]-2-oxo-ethyl]-3-isopropylsulfonyl-benzamide]
BRG-1
  IC50: 1 to 5 µM
  Emax: > 70%
BRM
  BRM Max % Inhibition: >90%
  IC50: 0.1 to 1 µM

## C[C@]1(CO)CCc2ccc(C(=O)NCC(=O)Nc3nc(-c4cccc(-c5cnccn5)n4)cs3)cc21 [Compound 169, (S)-3-(hydroxymethyl)-3-methyl-N-(2-oxo-2-((4-(6-(pyrazin-2-yl)pyridin-2-yl)thiazol-2-yl)amino)ethyl)-2,3-dihydro-1H-indene-5-carboxamide]
BRG-1
  IC50: > 5 µM
  Emax: > 50%
BRM
  BRM Max % Inhibition: >80%
  IC50: 0.1 to 1 µM

## C[C@@H]1CN(c2cccc(-c3csc(NC(=O)CNC(=O)c4cccc(C5(CF)COC5)c4)n3)c2)C[C@H](C)O1 [Compound 149, N-(2-((4-(3-((cis)-2,6-dimethylmorpholino)phenyl)thiazol-2-yl)amino)-2-oxoethyl)-3-(3-(fluoromethyl)oxetan-3-yl)benzamide]
BRG-1
  IC50: 1 to 5 µM
  Emax: > 70%
BRM
  BRM Max % Inhibition: >95%
  IC50: 0.1 to 1 µM

## COc1cccc(-c2csc(NC(=O)CNC(=O)c3cc(F)c4c(c3)[C@@](C)(C#N)COC4)n2)c1 [Compound 269, (S)-4-cyano-8-fluoro-N-(2-((4-(3-methoxyphenyl)thiazol-2-yl)amino)-2-oxoethyl)-4-methylisochromane-6-carboxamide]
BRG-1
  IC50: > 5 µM
  Emax: > 90%
BRM
  BRM Max % Inhibition: >90%
  IC50: 0.1 to 1 µM
